The results in this text go back to US20230348424A1, “HETEROCYCLIC COMPOUNDS AND METHODS OF USE” (Schrödinger, Inc., priority 2022, published 2023).

A value given as a limit tells only on which side of the number the result lay.

Sequence of SOS1:KRAS (G12C) interaction (Q07889 564-1049, stated change not applied): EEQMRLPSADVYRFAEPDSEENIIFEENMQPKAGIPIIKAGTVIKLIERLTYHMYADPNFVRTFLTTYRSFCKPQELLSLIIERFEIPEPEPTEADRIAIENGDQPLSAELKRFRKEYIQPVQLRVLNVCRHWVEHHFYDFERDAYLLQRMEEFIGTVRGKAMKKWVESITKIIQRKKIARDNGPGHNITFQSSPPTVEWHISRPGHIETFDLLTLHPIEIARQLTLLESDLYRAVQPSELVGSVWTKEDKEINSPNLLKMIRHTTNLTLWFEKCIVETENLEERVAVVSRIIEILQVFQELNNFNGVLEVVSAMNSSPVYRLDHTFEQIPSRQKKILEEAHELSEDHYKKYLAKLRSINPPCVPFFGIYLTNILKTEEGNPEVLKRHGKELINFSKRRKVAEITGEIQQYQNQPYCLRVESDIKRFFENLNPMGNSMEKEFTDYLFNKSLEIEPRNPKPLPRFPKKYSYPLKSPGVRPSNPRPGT

The target in the experiment is SOS1:KRAS (G12C) interaction (Homo sapiens (Human), UniProt Q07889). The experiment can be described thus: SOS1 KRas(G12C) FRET Assay. The experiment is classed as binding. As to conditions: 0.5 nM His10-SOS1 (res. 564-1049), 2.5 nM GST-KRAS G12C (res. 1-169), 2 hrs at RT. As to the method:
Inhibition of the SOS 1:KRAS interaction was measured using purified GST-tagged KRAS (res. 1-169, G12C, purified based on Hillig, et al., Proc Natl Acad Sci USA (2019); 116(7):2551-2560) and recombinant His10-SOS1 (res. 564-1049; purified based on Hillig, et al.). The final assay was performed at 20 uL with 0.5 nM SOS1 protein and 2.5 nM KRAS protein in a buffer of PBS, 0.1% BSA, 5 mM MgCh, 0.0025% Igepal, 100 mM KF, 5 mM DTT in a white 384 square well OptiPlate (PerkinElmer, Cat. 6007290). A 2x KRAS working solution was prepared in an assay buffer containing 5 nM GST-KRAS G12C and 2 nM anti-GST-Eu(K) (Cisbio, Cat. 61GSTKLA) and pre-incubated for 15 minutes at 25° C. […] The final DMSO concentration is 0.5%. Plates were incubated at RT for 2 hrs before the FRET signal was measured using Envision at emission 665 nm and 615 nm. FRET signal was converted to percentage of protein-protein interaction using the following equation:
• C: signal with compound treatment • P: signal for positive control (DMSO) • N: signal for negative control (no SOS1 added)
IC50 and Hill coefficients were obtained using Graph Pad Prism (Graph Pad software, Inc, USA) with non-linear regression analysis.
`Cc1c(C#N)cccc1[C@@H](C)NC(=O)c1cn([C@H]2[C@H](C)C2(F)F)c(=O)cc1N[C@H]1[C@@H]2CN(C)C[C@@H]21` (single isomer, unassigned) [Example 194] showed an IC50 of 0.0193 µM.

For `Cc1c([C@@H](C)NC(=O)c2cn(C3CCOCC3)c(=O)cc2NCC2(F)CN(C)C2)cccc1C(F)(F)F` [Example 30, (R)-4-(((3-fluoro-1-methylazetidin-3-yl)methyl)amino)-N-(1-(2-methyl-3-(trifluoromethyl)phenyl)ethyl)-6-oxo-1-(tetrahydro-2H-pyran-4-yl)-1,6-dihydropyridine-3-carboxamide], the IC50 was determined as 0.0363 µM.

Regarding `CN1C[C@@H]2[C@H](C1)[C@H]2Nc1cc(=O)n(C2(C(F)F)CC2)cc1C(=O)N[C@H](c1cccc(C(F)F)c1F)C(F)(F)F` (single isomer, unassigned) [Example 276], the IC50 is over 10 µM.

For the molecule `C[C@@H](NC(=O)c1cn(C2CCC2)c(=O)cc1NC1CCN(C)CC1)c1cccc(S(F)(F)(F)(F)F)c1` [Example 164, (R)-1-cyclobutyl-4-((1-methylpiperidin-4-yl)amino)-6-oxo-N-(1-(3-(pentafluoro-16-sulfaneyl)phenyl)ethyl)-1,6-dihydropyridine-3-carboxamide], the IC50 turned out to be 0.0135 µM.

`Cc1c([C@@H](C)NC(=O)c2cn(C3CCOCC3)c(=O)c(C)c2NC2CCN(C)CC2)cccc1C(F)(F)F` [Example 19, (R)-5-methyl-N-(1-(2-methyl-3-(trifluoromethyl)phenyl)ethyl)-4-((1-methylpiperidin-4-yl)amino)-6-oxo-1-(tetrahydro-2H-pyran-4-yl)-1,6-dihydropyridine-3-carboxamide] had an IC50 of 0.347 µM.

`C[C@@H](NC(=O)c1cn([C@@]2(C(F)(F)F)CCOC2)c(=O)cc1N[C@H]1[C@@H]2CN(C)C[C@@H]21)c1cccc(C(F)F)c1F` (single isomer, unassigned) [Example 234] yielded an IC50 of 0.0092 µM.

The molecule `CC(=O)N1CC[C@](C)(n2cc(C(=O)N[C@H](C)c3cccc(C(F)F)c3F)c(NC3CCN(C)CC3)cc2=O)C1` (single isomer, unassigned) [Example 265] yielded an IC50 of 0.0278 µM.

Molecule `C[C@@H](NC(=O)c1cn(C2(C(F)F)CC2)c(=O)cc1N[C@@H]1[C@@H]2CC[C@H]1CN(C)C2)c1cccc(C(F)F)c1F` (single isomer, unassigned) [Example 246] showed an IC50 of 0.0161 µM.

`C[C@@H](NC(=O)c1cn(C23COC(C2)C3)c(=O)cc1N[C@H]1[C@@H]2CN(C)C[C@@H]21)c1cccc(C(F)F)c1F` [Example 192] displayed an IC50 of 0.0129 µM.

Molecule `[2H]C([2H])([2H])N1C[C@@H]2[C@H](C1)[C@H]2Nc1cc(=O)n(C2(C(F)F)CC2)cc1C(=O)N[C@H](C)c1cccc(C(F)F)c1F` [Example 57, N-((R)-1-(3-(difluoromethyl)-2-fluorophenyl)ethyl)-1-(1-(difluoromethyl)cyclopropyl)-4-(((1R,5S,6s)-3-(methyl-d3)-3-azabicyclo[3.1.0]hexan-6-yl)amino)-6-oxo-1,6-dihydropyridine-3-carboxamide] came in with an IC50 of 0.0282 µM.

With `C[C@@H](NC(=O)c1cn(C2(C(F)F)CC2)c(=O)cc1N[C@H]1[C@@H]2C[C@H]1CN(C)C2)c1cccc(C(F)F)c1F` (single isomer, unassigned) [Example 251], inhibition was half-maximal at 0.0341 µM (IC50).

In turn, `C[C@@H](NC(=O)c1cn(C2(C(F)F)CC2)c(=O)cc1N[C@@H]1CCN2CCC[C@@H]2C1)c1cccc(C(F)F)c1F` (single isomer, unassigned) [Example 306] showed an IC50 of 0.0417 µM.

`CCC12CC(n3cc(C(=O)N[C@H](C)c4cccc(C(F)F)c4F)c(NC4[C@H]5CN(C)C[C@@H]45)cc3=O)(C1)C2` (stereo partly drawn) [Example 313, N-((R)-1-(3-(difluoromethyl)-2-fluorophenyl)ethyl)-1-(3-ethylbicyclo[1.1.1]pentan-1-yl)-4-(((1R,5S,6s)-3-methyl-3-azabicyclo[3.1.0]hexan-6-yl)amino)-6-oxo-1,6-dihydropyridine-3-carboxamide] gave an IC50 of 0.0105 µM.

As to `C[C@@H](NC(=O)c1cn([C@]2(C(F)(F)F)CCOC2)c(=O)cc1NC1CCN(C)CC1)c1cccc(C(F)F)c1F` [Example 233, N-((R)-1-(3-(difluoromethyl)-2-fluorophenyl)ethyl)-4-((1-methylpiperidin-4-yl)amino)-6-oxo-1-((R)-3-(trifluoromethyl)tetrahydrofuran-3-yl)-1,6-dihydropyridine-3-carboxamide], the IC50 came to 0.0048 µM.

Consider `C[C@@H](NC(=O)c1cn([C@@]2(C(F)(F)F)CCOC2)c(=O)cc1NC1CCN(C)CC1)c1cccc(C(F)F)c1F` [Example 232, N-((R)-1-(3-(difluoromethyl)-2-fluorophenyl)ethyl)-4-((1-methylpiperidin-4-yl)amino)-6-oxo-1-((S)-3-(trifluoromethyl)tetrahydrofuran-3-yl)-1,6-dihydropyridine-3-carboxamide], for which the IC50 was determined as 0.0919 µM.

Molecule `CC(Nc1cc(=O)n(C2(C(F)F)CC2)cc1C(=O)N[C@H](C)c1cccc(C(F)F)c1F)C1(CO)CC1` (stereo partly drawn) [Example 191, N-((R)-1-(3-(difluoromethyl)-2-fluorophenyl)ethyl)-1-(1-(difluoromethyl)cyclopropyl)-4-((1-(1-(hydroxymethyl)cyclopropyl)ethyl)amino)-6-oxo-1,6-dihydropyridine-3-carboxamide] returned an IC50 of 0.14 µM.

`C[C@@H]1C[C@@H]1n1cc(C(=O)N[C@H](C)c2cccc(C(F)F)c2F)c(N[C@H]2[C@@H]3CN(C)C[C@@H]32)cc1=O` (single isomer, unassigned) [Example 273] had an IC50 of 0.0157 µM.

As to `C[C@@H](NC(=O)c1cn(C2(C(F)F)CC2)c(=O)cc1NC[C@H]1CCCN1C)c1cccc(C(F)F)c1F` [Example 221, N-((R)-1-(3-(difluoromethyl)-2-fluorophenyl)ethyl)-1-(1-(difluoromethyl)cyclopropyl)-4-((((R)-1-methylpyrrolidin-2-yl)methyl)amino)-6-oxo-1,6-dihydropyridine-3-carboxamide], the IC50 came out at 0.0382 µM.

`C[C@@H](NC(=O)c1cn([C@H]2CCC2(F)F)c(=O)cc1N[C@H]1[C@@H]2CC[C@H]1CN(C)C2)c1cccc(C(F)F)c1F` [Example 210, 1-((S)-2,2-difluorocyclobutyl)-N-((R)-1-(3-(difluoromethyl)-2-fluorophenyl)ethyl)-4-(((1R,5S,8r)-3-methyl-3-azabicyclo[3.2.1]octan-8-yl)amino)-6-oxo-1,6-dihydropyridine-3-carboxamide] showed an IC50 of 0.0043 µM.

The molecule `C[C@@H](NC(=O)c1cn(C2(C(F)F)CC2)c(=O)cc1N[C@H]1[C@@H]2CC[C@H]1CN(C)C2)c1cccc(C(F)F)c1F` [Example 293, N-((R)-1-(3-(difluoromethyl)-2-fluorophenyl)ethyl)-1-(1-(difluoromethyl)cyclopropyl)-4-(((1R,5S,8r)-3-(methyl-d3)-3-azabicyclo[3.2.1]octan-8-yl)amino)-6-oxo-1,6-dihydropyridine-3-carboxamide] showed an IC50 of 0.0192 µM.

Regarding `C[C@@H]1[C@@H](n2cc(C(=O)N[C@H](C)c3cccc(C(C)(F)F)c3F)c(N[C@H]3[C@@H]4CN(C)C[C@@H]43)cc2=O)C1(F)F` (single isomer, unassigned) [Example 195], inhibition was half-maximal at 0.00544 µM (IC50).

In turn, `COc1ccc([C@H](C)NC(=O)c2cn(C3(C(F)F)CC3)c(=O)cc2NC2CCN(C)CC2)c(F)c1C(F)(F)F` (single isomer, unassigned) [Example 166] returned an IC50 of 0.193 µM.

In turn, `C[C@@H](NC(=O)c1cn(C2(C(F)F)CC2)c(=O)cc1NC[C@@H]1CCCN1C)c1cccc(C(F)F)c1F` [Example 188, N-((R)-1-(3-(difluoromethyl)-2-fluorophenyl)ethyl)-1-(1-(difluoromethyl)cyclopropyl)-4-((((S)-1-methylpyrrolidin-2-yl)methyl)amino)-6-oxo-1,6-dihydropyridine-3-carboxamide] gave an IC50 of 0.0413 µM.

As to `C[C@@H](NC(=O)c1cn([C@@]2(C)CCN(C(=O)C3(F)CC3)C2)c(=O)cc1NC1CCN(C)CC1)c1cccc(C(F)F)c1F` [Example 268, N-((R)-1-(3-(difluoromethyl)-2-fluorophenyl)ethyl)-1x-((S)-1-(1-fluorocyclopropane-1-carbonyl)-3-methylpyrrolidin-3-yl)-4-((1-methylpiperidin-4-yl)amino)-6-oxo-1,6-dihydropyridine-3-carboxamide], half-maximal inhibition (IC50) required 0.0328 µM.

`Cc1cc([C@H](C)NC(=O)c2cn(C3(C(F)F)CC3)c(=O)cc2NC2CCN(C)CC2)cc(C(F)(F)F)n1` (single isomer, unassigned) [Example 172] came in with an IC50 of over 10 µM.

The molecule `C[C@@H](NC(=O)c1cn([C@@H]2CC23CC3)c(=O)cc1N[C@H]1[C@@H]2CN(C)C[C@@H]21)c1cccc(C(F)(F)F)c1F` (single isomer, unassigned) [Example 218] showed an IC50 of 0.0158 µM.

As for `C[C@@H](NC(=O)c1cn(C2(C(F)F)CC2)c(=O)cc1N[C@@H]1CCN(C)C[C@@H]1F)c1cccc(C(F)F)c1F` (single isomer, unassigned) [Example 67], the IC50 came to 0.0106 µM.
